Legend:
[1] = target: T1, mCD22 (cellular CD22 on mouse B cells) (Mus musculus, UniProt P35329); test: flow cytometry, inhibition of NeuGc2,6-PAA-bio probe staining; format: cell-based; details: sialidase-treated mouse B cells (B220+); preincubation on ice 10 min
T1 sequence (P35329 22-868): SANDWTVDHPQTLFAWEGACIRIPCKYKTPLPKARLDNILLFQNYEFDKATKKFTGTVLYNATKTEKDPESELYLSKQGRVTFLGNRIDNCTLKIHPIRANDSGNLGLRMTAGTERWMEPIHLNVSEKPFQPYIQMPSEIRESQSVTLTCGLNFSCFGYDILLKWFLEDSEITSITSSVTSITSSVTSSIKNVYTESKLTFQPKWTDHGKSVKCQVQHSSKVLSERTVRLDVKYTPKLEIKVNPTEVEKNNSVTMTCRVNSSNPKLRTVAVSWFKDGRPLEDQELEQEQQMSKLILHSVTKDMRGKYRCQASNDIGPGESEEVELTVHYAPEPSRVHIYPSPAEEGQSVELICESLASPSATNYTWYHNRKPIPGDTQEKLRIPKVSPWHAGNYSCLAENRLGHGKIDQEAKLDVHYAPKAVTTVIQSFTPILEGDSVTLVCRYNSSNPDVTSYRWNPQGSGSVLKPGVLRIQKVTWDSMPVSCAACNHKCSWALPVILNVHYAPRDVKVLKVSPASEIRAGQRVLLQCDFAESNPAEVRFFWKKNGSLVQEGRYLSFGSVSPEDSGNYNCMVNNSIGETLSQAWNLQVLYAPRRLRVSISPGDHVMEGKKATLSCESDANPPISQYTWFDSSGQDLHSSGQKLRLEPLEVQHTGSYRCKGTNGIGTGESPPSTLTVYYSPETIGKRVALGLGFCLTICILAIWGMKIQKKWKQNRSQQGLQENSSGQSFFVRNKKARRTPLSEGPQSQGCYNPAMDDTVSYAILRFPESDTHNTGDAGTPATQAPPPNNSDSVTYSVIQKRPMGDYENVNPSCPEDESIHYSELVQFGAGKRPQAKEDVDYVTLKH

hCD22d1–3-Fc = target: T2, hCD22d1–3-Fc (Homo sapiens, UniProt P20273); test: hapten inhibition of […]-Fc-chimera binding to fixed target cells
T2 sequence (P20273 20-330 limits assumed): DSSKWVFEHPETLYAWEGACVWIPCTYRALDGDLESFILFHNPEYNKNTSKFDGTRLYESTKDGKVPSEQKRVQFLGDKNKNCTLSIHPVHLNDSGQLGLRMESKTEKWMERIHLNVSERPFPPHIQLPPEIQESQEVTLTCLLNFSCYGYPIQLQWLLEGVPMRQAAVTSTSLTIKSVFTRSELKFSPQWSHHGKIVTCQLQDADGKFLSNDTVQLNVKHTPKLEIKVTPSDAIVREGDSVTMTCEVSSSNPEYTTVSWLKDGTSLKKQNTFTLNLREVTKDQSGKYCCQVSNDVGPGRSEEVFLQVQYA

[2] = target: T3, hCD22 (cellular CD22 on Daudi cells) (Homo sapiens, UniProt P20273); test: flow cytometry, inhibition of NeuGc2,6-PAA-bio probe staining; format: cell-based; details: sialidase-treated Daudi cells; preincubation on ice 10 min
T3 sequence (P20273 20-847): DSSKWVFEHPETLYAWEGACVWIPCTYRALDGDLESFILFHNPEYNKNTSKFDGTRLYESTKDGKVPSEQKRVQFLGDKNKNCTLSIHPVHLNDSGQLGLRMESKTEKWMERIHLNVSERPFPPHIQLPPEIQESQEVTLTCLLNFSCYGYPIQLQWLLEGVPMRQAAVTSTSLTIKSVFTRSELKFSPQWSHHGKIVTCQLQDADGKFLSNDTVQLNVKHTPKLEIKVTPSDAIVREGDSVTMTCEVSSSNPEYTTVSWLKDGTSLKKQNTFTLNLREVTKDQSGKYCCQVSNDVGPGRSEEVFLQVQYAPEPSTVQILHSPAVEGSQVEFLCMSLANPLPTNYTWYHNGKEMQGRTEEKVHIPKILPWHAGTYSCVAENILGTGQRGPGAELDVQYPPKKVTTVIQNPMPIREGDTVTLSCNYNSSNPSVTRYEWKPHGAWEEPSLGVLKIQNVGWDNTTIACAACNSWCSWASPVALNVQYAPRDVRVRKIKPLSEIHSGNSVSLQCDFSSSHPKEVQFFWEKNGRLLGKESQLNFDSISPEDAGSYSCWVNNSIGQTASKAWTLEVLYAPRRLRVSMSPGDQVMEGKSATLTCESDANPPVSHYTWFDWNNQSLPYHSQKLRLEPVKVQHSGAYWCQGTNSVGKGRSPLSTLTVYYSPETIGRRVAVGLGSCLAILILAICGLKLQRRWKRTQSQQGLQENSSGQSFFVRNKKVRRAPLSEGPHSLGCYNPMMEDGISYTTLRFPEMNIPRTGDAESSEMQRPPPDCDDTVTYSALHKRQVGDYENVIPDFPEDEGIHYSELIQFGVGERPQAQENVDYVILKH

mCD22d1–3-Fc = target: T4, mCD22d1–3-Fc (Mus musculus, UniProt P35329); test: hapten inhibition of […]-Fc-chimera binding to fixed target cells
T4 sequence (P35329 22-347 limits assumed): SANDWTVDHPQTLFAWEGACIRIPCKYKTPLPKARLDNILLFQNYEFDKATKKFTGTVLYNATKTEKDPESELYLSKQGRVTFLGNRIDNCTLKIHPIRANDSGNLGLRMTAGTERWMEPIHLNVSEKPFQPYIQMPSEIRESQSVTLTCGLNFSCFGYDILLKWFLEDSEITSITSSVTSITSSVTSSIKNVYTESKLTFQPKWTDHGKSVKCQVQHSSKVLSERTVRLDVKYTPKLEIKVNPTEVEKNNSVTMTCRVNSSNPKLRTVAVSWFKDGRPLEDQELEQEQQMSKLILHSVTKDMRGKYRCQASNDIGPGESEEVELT

mSnd1–3-Fc = mSnd1–3-Fc (Mus musculus, UniProt Q62230); test: as above
mSnd1–3-Fc, sequence (Q62230 20-325 limits assumed): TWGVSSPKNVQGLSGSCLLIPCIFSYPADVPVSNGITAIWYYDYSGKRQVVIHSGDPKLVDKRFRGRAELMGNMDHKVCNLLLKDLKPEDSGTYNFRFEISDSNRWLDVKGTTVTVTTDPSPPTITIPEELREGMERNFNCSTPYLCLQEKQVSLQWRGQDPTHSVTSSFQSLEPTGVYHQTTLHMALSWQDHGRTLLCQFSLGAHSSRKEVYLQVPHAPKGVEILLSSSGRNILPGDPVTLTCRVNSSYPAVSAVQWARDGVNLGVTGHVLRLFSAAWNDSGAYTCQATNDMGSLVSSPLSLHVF

Question: For `CO[C@]1(C(=O)O)C[C@H](O)[C@@H](NC(C)=O)[C@H]([C@H](O)[C@H](O)CNC(=O)Cc2ccc(-c3ccccc3)cc2)O1` [BPAc-Neu5Ac, Methyl-a-9-N-(biphenyl-4-acetyl)-amino-9-deoxy-Neu5Ac], which “flow cytometry, inhibition of NeuGc2,6-PAA-bio probe staining” value [1] is on record?
Answer: performed on mouse B cells, BPAc-Neu5Ac was the more potent inhibitor

Question: What does the source list for `CO[C@]1(C(=O)O)C[C@H](O)[C@@H](NC(C)=O)[C@H]([C@H](O)[C@H](O)CNC(=O)c2ccc(-c3ccccc3)cc2)O1` [BPC-Neu5Ac, Methyl-a-9-N-(biphenyl-4-carbonyl)-amino-9-deoxy-Neu5Ac]?
Answer: IC50 (hCD22d1–3-Fc): 4 µM; flow cytometry, inhibition of NeuGc2,6-PAA-bio probe staining [2]: Pretreatment with BPC-Neu5Ac was most potent in inhibiting the binding of the synthetic CD22 ligand; IC50 (mCD22d1–3-Fc): 1220 µM; IC50 (mSnd1–3-Fc): 52 µM

Source: publication PMC2193707 (The Journal of Experimental Medicine, 2002)
